The values below come from paper PMC7948474, “Structural basis of carnitine monooxygenase CntA substrate specificity, inhibition, and intersubunit electron transfer” (The Journal of Biological Chemistry, 2020).

Entries after “also recorded” stand apart in the source; their conditions may differ. Like-named read-outs stand apart in the source and are kept apart here.

Data set [1] deals with T1, CntA (Acinetobacter baumannii, UniProt D0C9N6).
T1 construct: made in house; host or cells: Escherichia coli BL21(DE3)pLysS
T1 sequence (D0C9N6 1-371): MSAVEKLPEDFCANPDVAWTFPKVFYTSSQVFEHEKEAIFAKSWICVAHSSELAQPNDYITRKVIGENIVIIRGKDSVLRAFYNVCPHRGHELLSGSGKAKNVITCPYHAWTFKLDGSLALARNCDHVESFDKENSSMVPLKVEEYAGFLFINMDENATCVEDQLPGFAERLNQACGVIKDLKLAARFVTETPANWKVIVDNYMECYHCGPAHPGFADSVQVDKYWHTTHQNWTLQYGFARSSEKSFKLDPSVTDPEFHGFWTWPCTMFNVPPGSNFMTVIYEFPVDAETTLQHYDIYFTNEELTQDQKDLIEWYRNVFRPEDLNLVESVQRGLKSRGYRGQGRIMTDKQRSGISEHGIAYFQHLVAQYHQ
The experiment in a line: Inhibitory IC50 determination against CntA (UV-visible enzyme assay). In kind it is biochemical. As to the method:
(§1) All activity assays were performed on a BMG FLOUstar Omega 96-well plate reader, set at wavelength 340 nm with a sample volume of 200 μl. The assay comprised combining mixture A 60 μg CntA and 60 μg CntB with mixture B 0.25 mM L-carnitine and 0.25 mM NADH in a 10 mM Hepes buffer, pH 7.6 with 250 mM NaCl and 0.5 mM TCEP. […] The reactions were measured for 5 min recording the linear decrease of signal at 340 nm for NADH oxidation. The slope of the line was measured between 60 and 120 s to yield the rate.
Compounds in the Pathogen Box (https://www.mmv.org/mmv-open/pathogen-box/about-pathogen-box) were received as 10 mM stocks dissolved in dimethylsulfoxide (DMSO). The compounds were added such that the final concentration was 50 μM in the 200-μl reaction. As per the “UV-visible enzyme assays” methodology above, the protein in mixture A was incubated with inhibitor compounds for 20 min before commencing the assay.
[…]. For each concentration, four replicates were carried out. IC50 values were determined using a built-in “Dose Response Inhibition” – [Inhibitor] versus response model in Prism 8 for macOS v8.2.0.

In a further data set the test system is CutC. Also noted: method as in PMID 30082863. Conditions: irreversible covalent bond in the CutC catalytic site; cited from earlier work.
Data set [2] has as its target T1, CntA. The data set can be described thus: Substrate profiling of carnitine analogs with CntA (structure–activity relationship). The data set is classed as biochemical. The note with it: substrate analogs tested as CntA substrates. As to the method:
as §1

In data set [3] the test system is TMA production in A. baumannii cells. The data set can be described thus: Evaluation of inhibitors in A. baumannii cell culture (TMA production from carnitine). The data set is classed as cell-based, Acinetobacter baumannii. The note with it: inhibitor 200 μM; carnitine 1 mM; 37 °C, 1 h; N = 3. As to the method: A. baumannii cells were cultured overnight in the M9 minimal media at 37 °C with 10 mM L-carnitine as the sole carbon source. The cells were then collected by centrifugation and washed twice in a buffer containing 10 mM Hepes, 1 mM NaCl (pH 7.6). After wash, the cells were resuspended in the same buffer to a density of OD600 of 0.4. […]. These cells with appropriate treatments were incubated at 37 °C for 1 h. The supernatant was then obtained by filtering through a 0.2-μm filter and analyzed by ion chromatography by quantifying TMA production and carnitine degradation as described previously ([13]).

Substrate in data set [4]: C[N+](C)(C)CC(O)CC(=O)[O-]
The data set can be described thus: Michaelis–Menten kinetics of CntA (UV-visible NADH oxidation assay). The data set is classed as biochemical, Acinetobacter baumannii. Conditions: other: substrate of CntA; n = 4; pH 7.6. As to the method:
as §1
(§2) Michaelis–Menten kinetic parameters were derived using the UV-visible enzyme assays methodology above. Substrate concentrations were varied from a top concentration of 2 mM and decreasing in a twofold manner for 10 successive dilutions. Observed rates were obtained from four independent measurements and fitted to a nonlinear regression Michaelis–Menten model in Prism 8 for macOS v8.2.0.

Substrate in data set [5]: CCCC[N+](C)(C)C
The data set is described as above. The data set is classed as biochemical, Acinetobacter baumannii. Conditions: other: substrate of CntA; n = 4; pH 7.6. As to the method:
as §1, §2

Substrate in data set [6]: C[N+](C)(C)CCCC(=O)[O-]
Described as above. The data set is classed as biochemical, Acinetobacter baumannii. The note with it: other: substrate of CntA; n = 4; pH 7.6. As to the method: as §1, §2

Substrate in data set [7]: C[N+](C)(C)NCCC(=O)[O-]
The data set is described as above. The note with it: other: substrate of CntA; n = 4; pH 7.6. In kind it is biochemical, Acinetobacter baumannii. As to the method: as §1, §2

For `N#CS` [SCN, thiocyanate], on CntA [1] (dose response, N=3, read-out: IC50 (inhibition of CntA activity)), the IC50 came to 35000 µM.
As to `C[N+](C)(CF)CCO` [FMC, N-(fluoromethyl)-2-hydroxy-N,N-dimethylethan-1-aminium], in the data set with CutC, the EC50 was 0.056 µM.
For the molecule `C[N+](C)(C)CC(O)CC(=O)[O-]` (centres unmarked) [compound 1, Carnitine], the “Oxidation by CntA (activity as substrate)” value (“Oxidation by CntA” below) at CntA [2] is “oxidizing”.
As for `C[N+](C)(C)NCCC(=O)[O-]` [compound 3, Meldonium], the “Oxidation by CntA” value on CntA [2] is reported as “can also oxidize”.
On the same count and under the same terms, for `CCCC[N+](C)(C)C` [compound 4, (1-Butyl)Trimethylammonium] the value was “can also oxidize”.
Consider `c1csc(-c2cnc3sc(NCC4CCOCC4)nn23)c1` [MMV1, N-[(oxan-4-yl)methyl]-5-(thiophen-2-yl)imidazo[2,1-b][1,3,4]thiadiazol-2-amine], for which, in data set [3], the “Effect on TMA formation from carnitine in A. baumannii culture” value is “did not reduce TMA production; also recorded: did not inhibit TMA formation”. Further, 5.8 µM corresponded to half-maximal inhibition against CntA [1] (IC50).
Regarding `C[N+](C)(C)CCCC(=O)[O-]` [compound 2, γ-butyrobetaine], at CntA [2], the “Oxidation by CntA” value was “oxidizing”.
Take `Brc1cncc(-c2cc(NCCCn3ccnc3)nc(-c3ccccc3)n2)c1` [MMV3, 6-(5-bromopyridin-3-yl)-N-[3-(1H-imidazol-1-yl)propyl]-2-phenylpyrimidin-4-amine]: the “Effect on TMA formation from carnitine in A. baumannii culture” value in data set [3] is listed as “significant reduction; also recorded: almost completely inhibited TMA formation”. The midpoint of inhibition at CntA [1], the IC50, lay at 1.1 µM.

B1: CntA (Acinetobacter baumannii ATCC 19606 = CIP 70.34 = JCM 6841) (protein)
chain: T1 sequence (D0C9N6 1-371)
notes: made in house; host or cells: Escherichia coli BL21(DE3)pLysS
Regarding B1, the Vmax is reported as 59.0 (± 3.1) nmol/min/mg in data set [4], 30.1 (± 3.4) nmol/min/mg in data set [5], 76.06 (± 1.6) nmol/min/mg in data set [6] and 43.8 (± 1.4) nmol/min/mg in data set [7].
